EC50, IC50 and outcome data for 66 molecules are collected here from PubChem BioAssay AID179 (DTP/NCI, 2004).

Activity calls are given as the source filed them.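 How the source made its calls: active means compounds giving half or more protection of infected cells from virus-caused growth loss, again on retest; inactive means the rest.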

The experiment deals with CEM cells HIV-1 protection, formazan growth assay. Description: NCI AIDS Antiviral Assay. To be noted: for IC50: measured here: growth of uninfected CEM cells. Put shortly:
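Steps: treat uninfected and HIV-1-infected human CEM cells at five drug levels; quantify growth by soluble formazan; retest any compound reaching 50% protection; classify actives from the retest.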

Regarding `O=C1C=CC(=O)C2C1C1CC3C=CC312` (configuration not stated), the EC50 is above 1350 µM and the IC50 was above 1350 µM. As for `CC1=C/C(=C(/c2ccccc2S(=O)(=O)O)c2cc(C)c(O)c(CN(CC(=O)O)CC(=O)O)c2C)C(C)=C(CN(CC(=O)O)CC(=O)O)C1=O`, the result was inactive. Take `CN=C(NC#N)NCc1ccccc1`: the EC50 is above 1320 µM and the half-maximal inhibitory concentration (IC50) turned out to be 1200 µM. In the case of `O=C1/C(=C/c2ccccc2)NC(=S)N1CN1CCOCC1`, the EC50 is above 200 µM and the half-inhibitory concentration (IC50) was 72.4 µM. In the case of `CCOC(=O)CCN1C(=O)c2ccc(NC(=O)C(=O)O)cc2S1(=O)=O`, the EC50 is above 200 µM and the IC50 was above 200 µM. Turning to `COc1ccc(C2=NNC(=O)C2(C)Br)cc1` (configuration not stated), the EC50 is above 200 µM and the IC50 was determined as 42.7 µM. `CCN(CC)CCn1nc(N)c2nc3ccccc3nc21`: the EC50 is above 200 µM and the IC50 was determined as 107 µM. For `O=C1CSC(Cc2nc3ccccc3[nH]2)=N1`, in that order: above 30.9 µM and above 30.9 µM.

Consider `O=C1C(Cl)N(c2ccccc2)C1c1c[nH]c2ccccc12` (configuration not stated), for which the EC50 is above 316 µM and the half-maximal inhibitory concentration (IC50) stood at 288 µM. `CCCCCCCCCCOC(=O)c1cc[n+](C)cc1`: the outcome was inactive.

As for `Cc1ccc(S(=O)(=O)N2CCN3CCN(CCN(C)CCN4CCN(CC4)CCN(S(=O)(=O)c4ccc(C)cc4)CCN(S(=O)(=O)c4ccc(C)cc4)CCN(S(=O)(=O)c4ccc(C)cc4)CCN(S(=O)(=O)c4ccc(C)cc4)CCN4CCN(CCN(C)CCN5CCN(CC5)CCN(S(=O)(=O)c5ccc(C)cc5)CCN(S(=O)(=O)c5ccc(C)cc5)CCN(S(=O)(=O)c5ccc(C)cc5)CC2)CC4)CC3)cc1`, the EC50 was above 5.01 µM and the IC50 worked out at 0.724 µM. With `Cc1sc(N)c(S(=O)(=O)c2ccccc2)c1C`, the EC50 was 166 µM and the IC50 was determined as 195 µM.

As to `Nc1ccc(C(=O)NN2C(=O)C(Cl)C2c2cc(Br)cc(Br)c2O)cc1` (configuration not stated), the EC50 is above 200 µM and the 50% inhibitory concentration (IC50) worked out at 15.5 µM.

Regarding `O=c1[nH]nc(-c2ccccc2)n1Nc1ccccc1`, the EC50 was above 200 µM and the half-maximal inhibitory concentration (IC50) is above 200 µM. Turning to `COc1ccc(NC(=S)N/N=C(\c2ccccc2)c2ccccn2)cc1`, the EC50 was above 0.2 µM and the IC50 turned out to be 0.0912 µM. For `Cc1ccc(/C(=C\C(=O)C(=O)NC23CC4CC(CC(C4)C2)C3)Sc2ccccc2)cc1`, in that order: above 200 µM and 117 µM. As to `O=C(Nc1cc(S(=O)(=O)O)cc2cc(S(=O)(=O)O)c(N=Nc3cc(Nc4nc(Cl)nc(Nc5ccc(S(=O)(=O)O)cc5)n4)ccc3S(=O)(=O)O)c(O)c12)c1ccccc1`, the outcome was inactive. With `Cc1ccc(C(=O)Nc2ccc(CP(=O)(O)O)cc2)cc1NC(=O)c1cccc(NC(=O)Nc2cccc(C(=O)Nc3cc(C(=O)Nc4ccc(CP(=O)(O)O)cc4)ccc3C)c2)c1`, the EC50 was 16.6 µM and the IC50 came out at 50.1 µM. For `COc1ccc(/C=C2\CSC/C(=C\c3ccc(OC)c(OC)c3OC)C2=O)c(OC)c1OC`, in that order: above 200 µM and 15.5 µM. For `Clc1ccccc1/C=C\C1(c2ccccc2)OCCO1`, in that order: above 200 µM and 10.5 µM. Take `CC(=S)N(c1ccccc1)c1ccccc1`: the EC50 is above 200 µM and the IC50 came to 158 µM.

Turning to `C=C1CC[C@@](C)(c2ccc(C)cc2)C1C` (some centres not stated), the result was inactive. As for `COC(=O)Cc1ccc(COC(=O)c2cc(C(=CCC[C@H]3CC[C@@]4(C)[C@@H](CC[C@@H]5[C@@H]4CC[C@]4(C)[C@@H]([C@H](C)CCCC(C)C)CC[C@@H]54)C3)c3cc(Cl)c(OCc4ccc(CC(=O)OC)cc4)c(C(=O)OCc4ccc(CC(=O)OC)cc4)c3)cc(Cl)c2OCc2ccc(CC(=O)OC)cc2)cc1`, the EC50 is above 200 µM and the concentration for half-maximal inhibition (IC50) was above 200 µM. `CCCCCC(/C=C/[C@@H]1[C@H]2CC(=O)O[C@H]2C[C@H]1N1CCOCC1)OC1CCCO1` (some centres not stated): the EC50 is above 316 µM and the half-inhibitory concentration (IC50) is above 316 µM. In the case of `CCOC(=O)C(=O)Nc1ccc(Cl)c(C(F)(F)F)c1`, the result was inactive. For the molecule `CC(C)OP(=O)(CP(=O)(OC(C)C)OC(C)C)OC(C)C.[CH3][Sn]([Br])([Br])[Br]`, the EC50 was above 347 µM and the concentration for half-maximal inhibition (IC50) is above 347 µM. `COc1ccc(OC)c(CCc2cc(OC)ccc2OC)c1`: the EC50 was above 200 µM and the IC50 is 1.26 µM. `CC1=NS(=O)(=O)c2ccccc2N1`: the EC50 was above 1260 µM and the half-inhibitory concentration (IC50) is above 1260 µM. Consider `CSS(=O)(=O)C(c1ccccc1)c1ccccc1`, for which the EC50 is above 112 µM and the IC50 stood at 49 µM.

With `CSC(=N/N=C(\C)c1ccc(S(=O)(=O)N(C)c2ccccc2)cc1)SC`, the EC50 is above 200 µM and the IC50 amounted to 14.8 µM. Turning to `Cc1cc2c(CC(=O)O)[nH]nc2c(C(=O)O)c1C`, the EC50 is above 1000 µM and the IC50 was above 1000 µM.

For `COC(=O)[C@@H]1[C@H]2C[C@@H]3c4[nH]c5ccccc5c4CCN3C[C@@H]2CC[C@@H]1O`, the result was inactive.

In the case of `Cc1cn(CC2=NCC(C)(C)N2)c(=O)[nH]c1=O`, the EC50 is above 200 µM and the IC50 worked out at 93.3 µM. For `COc1cccc(/C=C2\C(=O)N(C(=O)Cc3ccccc3)N=C2C)c1`, in that order: above 15.5 µM and above 15.5 µM. With `COc1ccc2c3c([nH]c2c1[N+](=O)[O-])C(C)N(Cc1ccccc1)CC3` (configuration not stated), the outcome was inactive. For the molecule `CC(C)/C(Cl)=N\OC(NC(=O)P(=O)(c1ccccc1)c1ccccc1)(C(F)(F)F)C(F)(F)F`, the EC50 was above 200 µM and the IC50 stood at 10.5 µM. For `Cc1ccc(C(=O)O)c(/C=C2\Cc3ccc(C)cc3C2=O)c1`, in that order: above 200 µM and 97.7 µM.

Consider `CCc1ccccc1NC(=O)/C(CC(=O)c1c(C)n([O-])c2ccccc2[n+]1=O)=N\NS(=O)(=O)c1ccc(C)cc1`, for which the EC50 was above 23.4 µM and the IC50 was 13.5 µM. Regarding `CCCCCC[N+](C)(C)Cc1ccc(C[N+](C)(C)CCCCCC)cc1`, the result was inactive. For the molecule `CCSc1n/c(=C\c2ccco2)c2nnnn12`, the EC50 is above 50.1 µM and the IC50 was above 50.1 µM. For the molecule `O=C(NCCCCCCNC(=O)c1cc(-c2ccccc2)nc2ccccc12)c1cc(-c2ccccc2)nc2ccccc12`, the EC50 was above 200 µM and the concentration for half-maximal inhibition (IC50) is above 200 µM. As to `O=C(O)CCCCCCCCCCCI`, the half-maximal effective concentration (EC50) is 27.5 µM and the 50% inhibitory concentration (IC50) came out at 110 µM.

For the molecule `CC(C)(C)[Si](C)(C)OC1C(/C=N\O)OC(n2ccc(=O)[nH]c2=O)C1O[Si](C)(C)C(C)(C)C` (configuration not stated), the EC50 is above 200 µM and the IC50 turned out to be 3.55 µM. Take `OC(c1ccc2c(c1)OCO2)c1ccc2c(c1)OCO2`: the EC50 was above 200 µM and the half-maximal inhibitory concentration (IC50) stood at 178 µM. For `CCn1c2ccccc2c2ccc3c(c21)C(=O)C=CC3=O`, in that order: above 26.3 µM and above 26.3 µM. For the molecule `CCCC1(CCC)c2cc(/C=N\O)ccc2-c2ccc(-c3ccc(C(C)(C)C)cc3)cc21`, the EC50 was above 200 µM and the 50% inhibitory concentration (IC50) was 37.2 µM. Turning to `O=C1N=C(c2ccccc2)O/C1=C\c1ccccc1`, the EC50 is above 200 µM and the IC50 was above 200 µM. On to `CCCCCCCCCCCCCCCCCCNc1ccn(C2OC(COP(=O)(O)OCC(COP(=O)(O)OCC3OC(n4cc(C)c(=O)[nH]c4=O)CC3N=[N+]=[N-])OC(=O)CCCCCCCCCCCCCCC)C(O)C2O)c(=O)n1` (configuration not stated), for which the EC50 was 11.2 µM and the IC50 stood at 69.2 µM. For `COc1cc2cnc3c4cc(OC)c(OC(C)C)cc4ccc3c2cc1OC`, in that order: above 5.37 µM and above 5.37 µM. Take `CC1(C)CC(=O)c2c(nc3ccc4ccccc4c3c2-c2ccc(NC(=O)CCC(=O)Nc3ccc(-c4c5c(nc6ccc7ccccc7c46)CC(C)(C)CC5=O)cc3)cc2)C1`: the EC50 was above 100 µM and the half-inhibitory concentration (IC50) is above 100 µM. Consider `C=C(C)[C@@H]1CC[C@]2(C(=O)O)CC[C@]3(C)[C@H](CC[C@@H]4[C@@]5(C)CC[C@H](O)C(C)(C)[C@@H]5CC[C@]43C)[C@@H]12`, for which the EC50 is above 200 µM and the half-inhibitory concentration (IC50) came to 20.9 µM. For `CC1=C(C(=S)Nc2ccc(Cl)c(C(=O)OC(C)C)c2)SCCO1`, in that order: 0.024 µM and 64.6 µM. For `O=C(CC1C(=O)Nc2ccccc2S1(=O)=O)Nc1cc(Cl)ccc1Cl` (configuration not stated), in that order: above 18.2 µM and above 18.2 µM. Consider `FC(F)(F)c1nc(-c2ccccc2)oc1Sc1nnc(Sc2oc(-c3ccccc3)nc2C(F)(F)F)s1`, for which the outcome was inactive. On to `COC1=CC2(C=CC1=O)CCC(=O)O2` (configuration not stated), for which the EC50 is 10.5 µM and the IC50 amounted to 174 µM.

Regarding `Cc1cc(Cl)ccc1N1C(=O)C(=O)C(c2nc3ccccc3o2)C(=O)C1=O`, the result was inactive. For `CN1C(=O)C(C(C)(C)C2SC(=S)N(C)C2=O)SC1=S` (configuration not stated), the EC50 is above 200 µM and the concentration for half-maximal inhibition (IC50) was above 200 µM. Regarding `C=C(C)[C@@H]1CC[C@@H](C)[C@](O)([C@@H]2C[C@@H]([C@H](COC(=O)c3ccccc3)OC(=O)c3ccccc3)OC2=O)C1`, the EC50 was above 100 µM and the IC50 was above 100 µM. Take `N#C/C(=C\c1ccc2[nH]ccc2c1)C(=O)c1ccc(O)c(O)c1`: the EC50 was above 589 µM and the IC50 amounted to 102 µM. As to `CCn1c(=O)c(N=O)c(N)n(CC(C)C)c1=O`, the EC50 was above 200 µM and the half-inhibitory concentration (IC50) is 174 µM. Turning to `O=C1NC2=NN=C(c3ccc(Br)cc3)CN2NC12c1ccccc1-c1ccccc12`, the EC50 was above 100 µM and the IC50 is above 100 µM.

`Cc1ccc(S(=O)(=O)N2CCN3C(=O)c4ccccc4C32c2ccc(F)cc2)cc1` (configuration not stated): the EC50 was above 200 µM and the 50% inhibitory concentration (IC50) is 31.6 µM. For `CCN(CC)C(=S)/N=C(\SC(=S)N(CC)CC)c1ccccc1`, in that order: above 132 µM and 52.5 µM. In the case of `CC(C)C(F)(C(N)=O)C(=O)O` (configuration not stated), the EC50 was above 200 µM and the 50% inhibitory concentration (IC50) is above 200 µM.

Regarding `Cc1ccc(SCC(CF)OCn2cnc3c(N)ncnc32)cc1` (configuration not stated), the EC50 is above 200 µM and the IC50 was above 200 µM. On to `C1=CC2C=CC(C=C1)[PH+]2c1ccccc1.[C-]#[O+].[C-]#[O+].[C-]#[O+].[C-]#[O+].[C-]#[O+].[Cr]` (configuration not stated), for which the EC50 was above 6.76 µM and the half-inhibitory concentration (IC50) is above 6.76 µM.
